Test results reported in PMC2743695 (BMC Structural Biology, 2009).

Target: AlrBax (Dal1, alanine racemase from Bacillus anthracis Ames) (Bacillus anthracis, UniProt A0A6L7HC45)
Conditions: covalent (internal aldimine with Lys41); pH 6.5; chloride ion and acetate in active site

Chain of AlrBax (Dal1, alanine racemase from Bacillus anthracis Ames) (A0A6L7HC45 1-389 limits assumed): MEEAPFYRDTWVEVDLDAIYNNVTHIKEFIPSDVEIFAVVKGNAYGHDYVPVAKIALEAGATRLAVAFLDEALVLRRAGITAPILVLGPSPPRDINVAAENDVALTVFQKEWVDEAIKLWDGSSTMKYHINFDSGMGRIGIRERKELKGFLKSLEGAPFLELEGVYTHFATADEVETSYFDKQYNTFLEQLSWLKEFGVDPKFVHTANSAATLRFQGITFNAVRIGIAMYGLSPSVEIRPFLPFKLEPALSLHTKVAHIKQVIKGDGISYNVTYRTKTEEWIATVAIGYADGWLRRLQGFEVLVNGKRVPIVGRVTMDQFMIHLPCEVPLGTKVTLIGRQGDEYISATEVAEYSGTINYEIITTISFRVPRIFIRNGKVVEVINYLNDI

Q: How did the “X-ray crystal structure, 1.95 Å” value turn out when Cc1ncc(COP(=O)(O)O)c(C=O)c1O [PLP] was run?
A: Its value is “In the AlrBax structure, Lys41 is seen covalently linked to the PLP cofactor”.
